Patent publication US10328075B2, “Method of treatment and compounds for use therein” (Baker Heart and Diabetes Institute, priority 2015, dated 2019)
Where two headings read alike, the source gives them in different places.

Target: T1, hFPR2 (Homo sapiens, UniProt P25090)
T1 construct: expressed in transfected cells
T1 sequence (P25090 1-351): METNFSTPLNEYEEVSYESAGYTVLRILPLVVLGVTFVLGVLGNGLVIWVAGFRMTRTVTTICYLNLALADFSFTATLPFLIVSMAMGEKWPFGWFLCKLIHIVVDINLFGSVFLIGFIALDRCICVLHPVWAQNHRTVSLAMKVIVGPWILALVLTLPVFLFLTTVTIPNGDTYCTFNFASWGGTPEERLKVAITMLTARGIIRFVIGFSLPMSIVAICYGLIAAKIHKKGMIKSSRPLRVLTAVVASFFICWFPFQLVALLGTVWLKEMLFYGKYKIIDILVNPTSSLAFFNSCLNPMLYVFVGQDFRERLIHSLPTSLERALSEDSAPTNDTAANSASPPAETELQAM
Assay: Inhibition of forskolin-stimulated cAMP accumulation in hFPR2-FlpIn-CHO cells
Type: cell-based
Details: for ΔLog(τ/KA), inhibition of cAMP accumulation, hFPR2-Flpln-CHO: normalized transduction coefficient, reference agonist Cmpd43; for Log(τ/KA), inhibition of cAMP accumulation, hFPR2-Flpln-CHO: transduction coefficient; for Effect on the cAMP response at hFPR2: over the concentration range tested
Description: cDNDA construct and generation of stable cell lines: cDNA in pcDNA3.1^+ encoding the human formyl peptide receptors (FPR) subtypes, hFPR1, hFPR2 and hFPR3 was obtained from Invitrogen. The sequences for 3 hFPR receptors were amplified by PCR and cloned into the Gateway entry vector, pDONR202™, using the BP clonase enzyme mix, according to the manufactures' instructions (Invitrogen Inc, Carlsbad, Calif., USA). All hFPR receptors constructs in pDONR201™ were subsequently transfected into the pEF5/FRT/V5/dest vector using the LR clonase enzyme mix (Invitrogen). Receptor constructs (pEF5/FRT/V5/dest) were used to transfect FIp-In CHO cells as described previously (Valant C et al., PNAS, 2014). Cells were selected using 500 μg/mL hydromycin to generate cell lines stably expressing each receptor construct. Cells were maintained and cultured in high glucose DMEM supplemented with 10% FBS, 16 mM HEPES and 500 μg/mL hydromycin at 37° C. under a humidified atmosphere containing 5% CO2.
In the various assays described below, cells were plated into 96-well transparent cell culture plates at 4×10^4 cells per well, cultured overnight in serum-free media at 37° C. in 5% CO2.
cAMP Accumulation: CHO-hFPR1, -hFPR2 and -hFPR3 stable transfected cells were plated into 96-well plates and cultured overnight at 37° C. in 5% CO2. Cells were washed with PBS, and cultured overnight. […] Cells were lysed in detection buffer (dH2O, 0.3% Tween 20, 5 mM HEPES, 0.1% BSA). Lysates were transferred to a 384-well plate and mixtures of detection buffer/donor bead-conjugated anti-cAMP antibody and detection buffer: biotinylated cAMP: acceptor bead-conjugated streptavidin were added to the lysates according to the PerkinElmer cAMP Alphascreen protocol. Under low-light conditions, a 1:50 (v:v) dilution of AlphaScreen acceptor beads: stimulation buffer was prepared, 1:150 (v:v) dilution of donor beads and 50 nM biotinylated cAMP in detection buffer was prepared in a 384-well opaque optiplates. Plates were incubated in the dark at room temperature overnight before the fluorescence signal was measured by use of a Fusion-α plate reader (PerkinElmer Life and Analytical Sciences). Data were normalized to the response elicited by 10 μM forskolin at the same time point.
Data analysis: All data were analysed using GraphPad Prism 6.0 (GraphPad Software, San Deigo, Calif., USA). Where appropriate, concentration-response curves were fitted to derive the maximal agonist effect (Emax), and the ligand potency estimate (pEC50), where Emax is the maximal possible response of the system (not the agonist), basal is the basal level of response in the absence of agonist, and pEC50 is the negative logarithm of the agonist concentration that gives a response halfway between Emax and basal.
In the present study, FIp-IN CHO cells and Gateway plasmid were obtained from Invitrogen Inc (Carlsbad, Calif., USA). The sequences for all 3 known human FPRs (hFPR1, hFPR2 and hFPR3) were amplified by PCR and cloned into the Gateway entry vector, pDONR202TM, using the BP clonase enzyme mix, according to the manufacturers' instructions. The hFPR pDONR201TM constructs were subsequently transfected into the pEF5/FRT/V5/dest vector using the LR clonase enzyme mix (Invitrogen). Receptor constructs (pEF5/FRT/V5/dest) were used to transfect FIp-IN CHO cells, as described previously (Valant et al. 2014). Cells were selected using 500 μg/mL hydromycin to generate cell lines stably expressing each human receptor construct. Cells were maintained and cultured in high glucose Dulbecco's modified eagle medium (DMEM) supplemented with 10% fetal bovine serum (FBS, from JRH Biosciences, Lenexa, Kans., USA) and 500 μg/mL hydromycin B (Invitrogen Inc) at 37° C. under a humidified atmosphere containing 5% CO2. Cell were plated into 96-well transparent cell culture plates at 4×10^4 cells per well, cultured overnight in serum-free media at 37° C. in 5% CO2.

[1] = Table 4, percentage inhibition of forskolin-stimulated cAMP accumulation, read-out: Emax (%), inhibition to cAMP accumulation, hFPR2-Flpln-CHO
[2] = Table 8, percent inhibition of forskolin-induced cAMP accumulation, read-out: Emax, inhibition of cAMP accumulation, hFPR2-Flpln-CHO

Compound | Emax [1] [%] | EC50 (Table 4, read-out: pEC50, inhibition to cAMP accumulation, hFPR2-Flpln-CHO (converted)) [nM] | ΔLog(τ/KA), inhibition of cAMP accumulation, hFPR2-Flpln-CHO (Table 8) | Emax [2] [%] | EC50 (Table 8, read-out: pEC50, inhibition of cAMP accumulation, hFPR2-Flpln-CHO (converted)) [nM] | Log(τ/KA), inhibition of cAMP accumulation, hFPR2-Flpln-CHO (Table 8) | Effect on the cAMP response at hFPR2
CC(C)C1C(NC(=O)Nc2ccc(Cl)cc2)C(=O)N(c2ccccc2)N1C (stereo not drawn) [BIDI-002] | 66 ± 6 | 170 | 0.0 | 66 ± 6 | 251 | 6.5 ± 0.1 | caused an inhibition of the cAMP response
CSCC[C@H](NC=O)C(=O)N[C@@H](CC(C)C)C(=O)N[C@@H](Cc1ccccc1)C(=O)O [fMLP, N-formyl-Met-Leu-Phe] | 10 ± 8 |  | −1.6 ± 0.2 | 10 ± 8 |  | 4.9 ± 0.1 | caused an inhibition of the cAMP response
